Measurements reported in patent US20260347355A1, “COMPOUNDS” (Hoffmann-La Roche Inc., priority 2023, published 2026).

Tests used:
[1] = target: T1, human ether-i-go-go-related gene (hERG) cardiac potassium channel (Homo sapiens, UniProt Q12809); assay: hERG screening assay (automated patch clamp, CHO crelox hERG cells); assay type: cell-based; settings: SynchroPatch 384, 35-37 °C, 0.1 Hz, read-out: hERG inhibition IC20
T1 construct: whole-cell automated patch clamp, SynchroPatch 384, 35-37 °C
Text: In the drug development process of small molecules, one of the most frequent adverse side effects, leading to the failure of drugs, is the cardiac arrhythmias. Such failure is often related to the capacity of the drug to inhibit the human ether-i-go-go-related gene (hERG) cardiac potassium channel. Having no or low inhibition of the hERG cardiac potassium channel is therefore considered as beneficial.
The CHO crelox hERG cell line (ATCC reference Nr. PTA-6812, female Chinese hamster cells) was generated and validated at Roche. Ready-to-use frozen instant CHO-hERG cells were cryopreserved at Evotec (Germany) and used directly in the experiments.
The extracellular solution contains (in mM): NaCl 150; KCl 4; CaCl2 1; MgCl2 1; HEPES 10; pH 7.2-7.4 with NaOH, osmolarity 290-330 mOsm. […]
The effects of a compound on hERG K+-currents parameters will be evaluated at 2 concentrations in at least 4 cells.
The hERG test is performed using automated patch clamp system SynchroPatch® 384 (Nanion Technologies GmbH, Germany). K+ currents are measured with the patch-voltage-clamp technique in the whole-cell configuration at 35-37 °C. […]
The amplitudes of IKhERG were recorded in each concentration of drug and they were compared to the vehicle control values (taken as 100%) to define fractional blocks. […]

[2] = target: T2, NLRP3 (Homo sapiens, UniProt Q96P20); set-up: THP-1 cells (ATCC #TIB-202) were grown in RPMI; endogenous in cells; host or cells: THP-1 cells (ATCC TIB-202); settings: cited from earlier work
T2 sequence (Q96P20 whole entry): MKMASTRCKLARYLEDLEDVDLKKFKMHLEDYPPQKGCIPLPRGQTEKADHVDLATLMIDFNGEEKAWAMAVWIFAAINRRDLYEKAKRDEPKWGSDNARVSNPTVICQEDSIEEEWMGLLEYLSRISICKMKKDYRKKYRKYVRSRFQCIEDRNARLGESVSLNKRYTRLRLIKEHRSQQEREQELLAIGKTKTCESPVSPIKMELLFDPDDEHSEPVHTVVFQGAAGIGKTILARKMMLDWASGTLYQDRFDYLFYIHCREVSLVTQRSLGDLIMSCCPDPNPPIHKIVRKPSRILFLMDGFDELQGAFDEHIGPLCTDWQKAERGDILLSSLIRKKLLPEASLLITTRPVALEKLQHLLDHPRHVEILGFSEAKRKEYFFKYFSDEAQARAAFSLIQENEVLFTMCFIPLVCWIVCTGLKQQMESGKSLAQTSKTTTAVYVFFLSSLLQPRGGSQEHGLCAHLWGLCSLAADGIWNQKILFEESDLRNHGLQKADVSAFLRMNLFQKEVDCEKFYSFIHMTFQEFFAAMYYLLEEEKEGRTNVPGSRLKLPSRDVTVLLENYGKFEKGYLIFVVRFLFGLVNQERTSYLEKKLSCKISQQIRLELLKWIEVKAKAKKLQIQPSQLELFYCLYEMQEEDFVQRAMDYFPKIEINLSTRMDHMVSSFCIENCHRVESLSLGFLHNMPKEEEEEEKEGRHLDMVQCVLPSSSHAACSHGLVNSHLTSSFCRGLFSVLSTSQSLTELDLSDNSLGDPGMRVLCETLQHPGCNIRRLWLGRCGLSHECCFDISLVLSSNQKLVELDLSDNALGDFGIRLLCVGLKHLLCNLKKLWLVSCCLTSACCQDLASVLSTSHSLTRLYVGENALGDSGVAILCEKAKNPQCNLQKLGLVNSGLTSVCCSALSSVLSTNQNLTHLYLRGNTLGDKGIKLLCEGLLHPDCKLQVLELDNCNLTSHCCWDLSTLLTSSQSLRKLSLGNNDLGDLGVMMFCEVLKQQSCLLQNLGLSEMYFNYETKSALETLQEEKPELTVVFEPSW

[3] = tested on: NLRP1; settings: cited from earlier work
[4] = tested on: NLRC4; settings: cited from earlier work
[5] = target: T2, NLRP3; assay: THP-1 cells pyroptosis assay (LPS primed, nigericin stimulated, resazurin readout); assay type: cell-based; set-up: endogenous in cells; host or cells: THP-1 cells (ATCC TIB-202); settings: THP-1 pyroptosis Assay IC50, THP-1 cells, 1 μg/ml LPS, 5 μM nigericin, 3 h compound pre-incubation
Experimental: Therefore, it is anticipated that inhibitors of NLRP3 will block pyroptosis, as well as the release of pro-inflammatory cytokines (e.g. IL-1β) from the cell.
THP-1 Cells: Culture and Preparation
The cells were routinely passaged and grown to confluency (~10^6cells/ml). On the day of the experiment, THP-1 cells were harvested and resuspended into RPMI medium (without FBS). […] To this diluted cell solution was added LPS (Sigma #L4524) to give a 1 μg/ml Final Assay Concentration (FAC). 40 μl of the final preparation was aliquoted into each well of a 96-well plate. The plate thus prepared was used for compound screening.
THP-1 Cells Pyroptosis Assay
The following method step-by-step assay was followed for compound screening.
(§1) Incubate for 3 hours at 37 °C, 5% CO2
Add 5 μl nigericin (Sigma #N7143) (FAC 5 μM) to all wells
(§2) Incubate for 1 hr at 37 °C, 5% CO2
At the end of the incubation period, spin plates at 300×g for 3 mins and remove supernatant
Then add 50 μl of resazurin (Sigma #R7017) (FAC 100 μM resazurin in RPMI medium without FBS) and incubate plates for a further 1-2 hours at 37 °C and 5% CO2
(§3) IC50 data is fitted to a non-linear regression equation (log inhibitor vs response-variable slope 4-parameters)

[6] = target: T2, NLRP3; assay: Human whole blood IL-1β release assay (LPS, nigericin; AlphaLISA); assay type: cell-based; set-up: Human whole blood in Li-heparin tubes was obtained from healthy donors from a volunteer donor panel; from tissue; host or cells: human whole blood from healthy volunteer donors; settings: 1 μg/ml LPS, 10 μM nigericin, 3 h compound pre-incubation
Experimental: Human Whole Blood IL-1β Release Assay
For systemic delivery, the ability to inhibit NLRP3 when the compounds are present within the bloodstream is of great importance. For this reason, the NLRP3 inhibitory activity of a number of compounds in human whole blood was investigated in accordance with the following protocol.
Human whole blood in Li-heparin tubes was obtained from healthy donors from a volunteer donor panel.
as §1
Add 10 μl nigericin (Sigma #N7143) (10 μM FAC) to all wells
as §2
At the end of the incubation period, spin plates at 300×g for 5 mins to pellet cells and remove 20 μl of supernatant and add to 96-well v-bottom plates for IL-1β analysis (note: these plates containing the supernatants can be stored at −80 °C to be analysed at a later date)
IL-1β was measured according to the manufacturer protocol (Perkin Elmer-AlphaLisa IL-1 Kit AL220F-5000)
as §3

[7] = tested on: CAPS; settings: biologic agents that target IL-1; cited from earlier work

T1 sequence (Q12809 whole entry): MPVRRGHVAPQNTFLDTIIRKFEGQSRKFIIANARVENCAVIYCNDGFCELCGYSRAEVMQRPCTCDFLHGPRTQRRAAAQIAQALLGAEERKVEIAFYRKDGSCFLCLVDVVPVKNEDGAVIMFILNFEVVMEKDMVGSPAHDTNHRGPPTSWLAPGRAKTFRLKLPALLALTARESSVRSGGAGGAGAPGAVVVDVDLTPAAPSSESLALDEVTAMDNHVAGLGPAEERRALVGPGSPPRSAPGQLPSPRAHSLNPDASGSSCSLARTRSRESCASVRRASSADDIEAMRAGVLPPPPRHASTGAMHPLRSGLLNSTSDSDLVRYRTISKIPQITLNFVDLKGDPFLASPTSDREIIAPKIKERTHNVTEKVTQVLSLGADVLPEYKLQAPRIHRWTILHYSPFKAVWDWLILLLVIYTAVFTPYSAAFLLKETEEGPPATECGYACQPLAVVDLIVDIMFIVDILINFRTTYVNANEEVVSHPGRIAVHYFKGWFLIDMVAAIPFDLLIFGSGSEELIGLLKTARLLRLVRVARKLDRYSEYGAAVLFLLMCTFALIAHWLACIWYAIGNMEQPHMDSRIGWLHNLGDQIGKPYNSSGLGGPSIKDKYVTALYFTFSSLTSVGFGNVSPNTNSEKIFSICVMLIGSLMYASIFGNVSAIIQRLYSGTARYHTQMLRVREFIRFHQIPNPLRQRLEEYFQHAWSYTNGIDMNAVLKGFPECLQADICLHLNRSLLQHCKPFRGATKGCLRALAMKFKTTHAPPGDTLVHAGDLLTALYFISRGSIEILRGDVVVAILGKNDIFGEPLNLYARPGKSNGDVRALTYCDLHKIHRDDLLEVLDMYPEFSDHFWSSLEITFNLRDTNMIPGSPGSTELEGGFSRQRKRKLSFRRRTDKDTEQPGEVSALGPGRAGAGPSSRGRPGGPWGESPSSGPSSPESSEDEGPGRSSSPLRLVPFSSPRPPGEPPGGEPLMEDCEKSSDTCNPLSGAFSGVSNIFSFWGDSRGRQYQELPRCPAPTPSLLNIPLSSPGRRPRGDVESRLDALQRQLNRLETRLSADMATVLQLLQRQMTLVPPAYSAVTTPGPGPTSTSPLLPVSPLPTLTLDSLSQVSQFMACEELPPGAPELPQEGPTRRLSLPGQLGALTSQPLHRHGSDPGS

| Compound | IC50 [5] | IC50 [6] | further results |
| --- | --- | --- | --- |
| Oc1c(-c2nnc(N[C@@H]3CCOC[C@@H]3O)c3cnccc23)ccc2c1CCO2 [Example 15, 5-[4-[[(3R,4R)-3-Hydroxytetrahydropyran-4-yl]amino]pyrido[3,4-d]pyridazin-1-yl]-2,3-dihydrobenzofuran-4-ol] | – | – | IC20 [1]: > 10000 nM |
| Oc1c(-c2nnc(N[C@H]3CCCC[C@@H]3O)c3cnccc23)ccc2c1CCO2 (relative stereo) [Example 2B, 5-[4-[[rel-(1S,2S)-2-Hydroxycyclohexyl]amino]pyrido[3,4-d]pyridazin-1-yl]-2,3-dihydrobenzofuran-4-ol] | – | – | IC20 [1]: > 10000 nM |
| C=C1C(=O)O[C@@H]2[C@H]3O[C@]3(C)CC/C=C(\C)CC[C@@H]12 [parthenolide] | – | – | NLRP3 inhibition, potency [2]: limited potency; NLRP3 inhibition, specificity [2]: nonspecific |
| COc1ccc(Cl)cc1C(=O)NCCc1ccc(S(=O)(=O)NC(=O)NC2CCCCC2)cc1 [Glyburide] | – | – | inhibition of IL-1β production in response to the activation of NLRP1 [3]: not NLRC4 or NLRP1; inhibition of IL-1β production in response to the activation of NLRC4 [4]: not NLRC4 |
| O=[N+]([O-])C=Cc1ccc2c(c1)OCO2 [3,4-methylenedioxy-β-nitrostyrene] | – | – | NLRP3 inhibition, potency [2]: limited potency; NLRP3 inhibition, specificity [2]: nonspecific |
| Oc1c(-c2nnc(NCC3CCOC3)c3cnccc23)ccc2c1CCO2 (single isomer, unassigned) [Example 5A] | 29 nM | 32 nM | – |
| Oc1c(-c2nnc(NCC3CCCO3)c3cnccc23)ccc2c1CCO2 (single isomer, unassigned) [Example 6A] | 58 nM | 47 nM | – |
| O[C@@H]1CCCC[C@H]1Nc1nnc(-c2ccc3cc[nH]c3c2)c2ccncc12 (racemic) [Example 3, rac-(1R,2R)-2-[[1-(1H-Indol-6-yl)pyrido[3,4-d]pyridazin-4-yl]amino]cyclohexanol] | 99 nM | 108 nM | – |
| rilonacept | – | – | success in the treatment of CAPS [7]: proven successful in the treatment of CAPS |
| Fc1c[nH]c2cc(-c3nnc(NCC4CCOC4)c4cnccc34)ccc12 (single isomer, unassigned) [Example 4A] | 134 nM | – | – |
| canakinumab: neutralizing IL-1β antibody | – | – | success in the treatment of CAPS [7]: proven successful in the treatment of CAPS |
| C[S+](C)[O-] [dimethyl sulfoxide (DMSO), dimethyl sulfoxide] | – | – | NLRP3 inhibition, potency [2]: limited potency; NLRP3 inhibition, specificity [2]: nonspecific |
| Oc1c(-c2nnc(N[C@H]3CC[C@@H](O)CC3)c3cnccc23)ccc2c1CCO2 [Example 11, cis-5-[4-[(4-Hydroxycyclohexyl)amino]pyrido[3,4-d]pyridazin-1-yl]-2,3-dihydrobenzofuran-4-ol] | 57 nM | 51 nM | – |
| Oc1c(-c2nnc(NCC3CCOC3)c3cnccc23)ccc2c1CCO2 (racemic) [Example 5, 5-[4-[[rac-(3S)-Tetrahydrofuran-3-yl]methylamino]pyrido[3,4-d]pyridazin-1-yl]-2,3-dihydrobenzofuran-4-ol] | 38 nM | 37 nM | – |
| Fc1c[nH]c2cc(-c3nnc(NCC4CCOC4)c4cnccc34)ccc12 (single isomer, unassigned) [Example 4B] | 211 nM | – | – |
| anakinra: recombinant IL-I receptor antagonist | – | – | success in the treatment of CAPS [7]: proven successful in the treatment of CAPS |
| Oc1c(-c2nnc(N[C@H]3CC[C@H](O)CC3)c3cnccc23)ccc2c1CCO2 [Example 9, trans-5-[4-[(4-Hydroxycyclohexyl)amino]pyrido[3,4-d]pyridazin-1-yl]-2,3-dihydrobenzofuran-4-ol] | 56 nM | 43 nM | – |
| Oc1c(-c2nnc(NCC3CCOC3)c3cnccc23)ccc2c1CCO2 (single isomer, unassigned) [Example 5B] | 64 nM | 36 nM | – |
| Oc1c(-c2nnc(NCC3CCCO3)c3cnccc23)ccc2c1CCO2 (single isomer, unassigned) [Example 6B] | 63 nM | 59 nM | – |
| COCc1cc2c(c(O)c1-c1nnc(N[C@@H]3CCCC[C@H]3O)c3cnccc13)CCO2 [Example 8, 5-[4-[[(1R,2R)-2-Hydroxycyclohexyl]amino]pyrido[3,4-d]pyridazin-1-yl]-6-(methoxymethyl)-2,3-dihydrobenzofuran-4-ol] | 21 nM | – | – |
